Source: patent publication US9353154B2, “Compositions for labeling nerves and methods of use” (Avelas Biosciences, Inc., priority 2010, dated 2016)
Entries after “also recorded” stand apart in the source; their conditions may differ. Where a SMILES comes first, the peptide text is derived from it. The star is where a group is joined. 6FAM = O=C1OC2(c3ccc(O)cc3Oc3cc(O)ccc32)c2cc(C(=O)*)ccc21

What was measured:
[1] = Plasma digestion of Peptide A followed by LC-MS; type: in vitro ADME; details: mouse plasma, 37° C.
Description: (§1) 6-Carboxylfluorescein (6-FAM) labeled peptide A (1 mg) was added to freshly prepared mouse plasma (0.5 mL). The resulting solution was gently mixed and incubated at 37° C. The reaction was followed by an LC-MS at different time points. An analogous procedure was done at room temperature with 1-5 mg of Peptide A.

[2] = Stability of peptide A in saline (control); type: physicochemical; details: 48 h
Description: as §1
The peak was isolated by preparative RP-HPLC. […] As a control, peptide A is stable in saline after 48 h (Chart E&F, FIG. 5).

mouse sciatic nerve = experiment: In vivo sciatic nerve fluorescence contrast (nerve vs surrounding muscle); details: 150 nmol via tail vein injection, imaging at 2 h
Description: (§2) Fluorescence contrast activity of was assessed using male euthymic and immunocompetent hairless SKH1-E mice (25-35 grams). On the day of study, each involved mouse was weighed and restrained using the rotating tail injector for intravenous (tail vein) injection in conscious animal.
(§3) Test agents were injected intravenously into the tail vein (30-150 nmol in 0.1 mL/mouse). The animals were returned to assigned cage and kept under controlled environmental conditions before being examined for sciatic nerve fluorescence labeling 2 hours later.
(§4) Two hours after the intravenous injection, the mice were anesthetized with a mixture of ketamine HCl/Xylazine HCl solution administered intraperitoneally. The deeply anesthetized mice were transferred on the piece of cork for blunt dissection of sciatic nerve.
After the full body imaging, the deeply anesthetized mice were transferred on the computerized fluorescent stereomicroscope equipped with appropriate excitation/emission filters to examine and record the fluorescence specific to sciatic nerve and compare it to that documented on the surrounding tissues such as muscle. All captured images were examined and analyzed using Image J to generate quantitative data.
For each experimental group, fluorescence intensities from each mouse sciatic nerve were averaged to generate the Mean±SEM value. The background was defined as the average fluorescence intensities of the muscle tissue surrounding the sciatic nerve. The fluorescence contrast (C) is defined and calculated as C=(IN−IB)/IB, where IN is the average nerve fluorescence intensity and IB is the average proximal background intensity. Constrast>0.4 is considered good.

mouse skin = experiment: In vivo skin fluorescence (full body imaging, skin staining activity); details: 150 nmol via tail vein injection, imaging at 2 h
Description: as §2, §3, §4
Full body imaging of deeply anesthetized mouse with open surgical wound/exposed sciatic nerve was then performed using a computerized imaging system with appropriate excitation/emission filters. The full body imaging was used to calculate the skin staining activity of the visualization agents.

digested products in plasma ([1]; 3 h) | digestion in plasma (HPLC chromatogram, 220 nm absorbance) ([1]; 20 h) | digestion in plasma (HPLC chromatogram, 220 nm absorbance) ([1]; 48 h) | major truncated component after plasma digestion ([1]; peak isolated by preparative RP-HPLC) | stability in saline [2] | Molecule | fluorescence nerve contrast (mouse sciatic nerve) | fluorescence nerve contrast relative to peptide A (mouse sciatic nerve) | fluorescence nerve contrast (mouse sciatic nerve; listed as peptide 3) | skin fluorescence compared to peptide A (mouse skin) | skin fluorescence compared to peptide A (mouse skin; listed as peptide 3)
No detectable digested products | a new peak appeared | a new peak appeared | C-terminus lysine labeled with 6-FAM | stable | CC(=O)N[C@@H](CO)C(=O)N[C@@H](Cc1c[nH]cn1)C(=O)N[C@@H](CO)C(=O)N[C@@H](CC(N)=O)C(=O)N[C@H](C(=O)N[C@@H](CCC(N)=O)C(=O)N[C@H](C(=O)N[C@@H](CC(C)C)C(=O)N[C@@H](C)C(=O)N[C@@H](CCCCN)C(=O)N[C@@H](C)C(=O)N1CCC[C@H]1C(=O)N[C@@H](CCC(=O)O)C(=O)N[C@@H](Cc1c[nH]cn1)C(=O)N[C@H](C(=O)NCC(=O)N[C@@H](CCCCNC(=O)c1ccc2c(c1)C1(OC2=O)c2ccc(O)cc2Oc2cc(O)ccc21)C(N)=O)[C@@H](C)O)[C@@H](C)O)[C@@H](C)O [Peptide A, Ac-Ser-His-Ser-Asn-Thr-Gln-Thr-Leu-Ala-Lys-Ala-Pro-Glu-His-Thr-Gly-Lys(6FAM)-NH2] (Ac-SHSNTQTLAKAPEHTGK(6FAM)-NH2) |  |  |  |  | 
 |  |  |  |  | Ac-Glu-His-Thr-Gly-Lys(6FAM)-NH2 (Ac-EHTGK(6FAM)-NH2; SMILES CC(=O)N[C@@H](CCC(=O)O)C(=O)N[C@@H](Cc1c[nH]cn1)C(=O)N[C@H](C(=O)NCC(=O)N[C@@H](CCCCNC(=O)c1ccc2c(c1)C1(OC2=O)c2ccc(O)cc2Oc2cc(O)ccc21)C(N)=O)[C@@H](C)O) [Peptide 3] | high | greater | excellent; also recorded: very high | significantly less | much less
